From patent US9382288B2, “Derivatives of steroid benzylamines, having an antiparasitic antibacterial, antimycotic and/or antiviral action” (Justus-Liebig-Universitat Giessen, priority 2010, dated 2016)
In brackets after ≈: the same amount, converted by molar mass. Entries after “also recorded” stand apart in the source; their conditions may differ. Like-named read-outs stand apart in the source and are kept apart here.

How the values were obtained:
[1] = tested on: K562; experiment: Antiproliferative activity K562; type: cell-based; conditions: Homo sapiens, read-out: IC50 [μg/ml] Antiproliferative activity K562
[2] = Cytotoxicity HeLa; conditions: human, HeLa cells
[3] = tested on: P. falciparum strain 3D7-Netherlands; experiment: In vitro IC50, 3H-hypoxanthine incorporation, P. falciparum 3D7; type: cell-based, Plasmodium falciparum; conditions: for IC50: Plasmodium falciparum; for in vitro activity in words: compared with compound 1
[4] = tested on: Plasmodium berghei GFP MRA-865; experiment: Plasmodium berghei infection in the mouse model (in vivo); conditions: for Activity (%): parasitemia day 4 vs untreated controls
[5] = tested on: adult S. mansoni; experiment: In vitro treatment of adult S. mansoni couples, visual evaluation by microscope; design: species or system Schistosoma mansoni
Description: Compounds 2, 18 and 41 were tested by Prof. Dr. Grevelding, Parasitology, Veterinary Medicine, University of Gieβen, also in the parasite Schistosoma mansoni. […] Each test was performed with 3 groups of 10 worms each. Remarkable was that different effects on the worms with respect to morphological alterations could be observed. […] Exemplarily shown in FIGS. 1 and 2 is an image of a control assay and an image of trematodes after 48 hours of incubation with compound 18.
Each one of the three groups (one group per well) comprised 10 pairs of adult S. mansoni were incubated with the substance to be tested for 24 h. As control served three groups which were incubated with medium (M199) and three groups which were incubated with medium and DMSO as solvent of the test substances. Evaluation was done visually using a microscope.
In a second experimental setting, again three groups each (one group per well) with 8 pairs of adult S. mansoni each were incubated with the compound to be tested, however for 48 h in this experiment. As control served three groups which were either incubated with medium (M199) or medium and DMSO as solvent of the test substances. Evaluation was done visually using a microscope.

[6] = tested on: L929; experiment: Antiproliferative activity L929; type: cell-based; conditions: Mus musculus, read-out: IC50 [μg/ml] Antiproliferative activity L929
[7] = tested on: Trypanosoma brucei brucei S427; experiment: In vitro efficacy against Trypanosoma brucei; type: cell-based
Description: Compounds 18 and 41 were assessed at the London School of Hygiene and Tropical Medicine in vitro with respect to their efficacy against the parasite Trypanosoma brucei brucei […].

[8] = 3D7, read-out: IC50 [ng/ml] P.f.(3D7)
[9] = P. falciparum strain 3D7, read-out: IC50 [nM] P.f.(3D7)
[10] = 24 hours, 100 μM, 3 groups of 10 pairs
[11] = 48 hours, 20 μM, 3 groups of 8 pairs
[12] = 48 hours, 100 μM, 3 groups of 8 pairs
[13] = P. falciparum strain 3D7, read-out: IC50 [ng/ml] P.f.(3D7)

COc1ccc2c(c1)CCC1C2CC[C@@]2(C)C1CC[C@H]2NCc1ccccc1O (stereo partly drawn) [Compound 2, 17α-(2-Hydroxyphenyl-methylamino)-3-methoxy-estra-1,3,5(10)-triene]
IC50 [1]: 0.5 µg/mL (≈ 1.28 µM)
IC50 [2]: 3.1 µg/mL (≈ 7.92 µM)
IC50 [3, 8]: 2.9 ng/mL
IC50 [3, 9]: 7.4 nM
life span in words ([4]; all dosages and routes of administration tested): considerably extended the life span
MSD (days) ([4]; oral 3 × 10 mg/kg): 8.7 (n = 3) days
Activity (%) ([4]; oral 3 × 10 mg/kg): 46.8%
MSD (days) ([4]; oral 3 × 30 mg/kg): 13 (n = 3) days
Activity (%) ([4]; oral 3 × 30 mg/kg): 99.4%
MSD (days) ([4]; oral 3 × 100 mg/kg): 15.33 (n = 3) days
Activity (%) ([4]; oral 3 × 100 mg/kg): 99.7%
MSD (days) ([4]; sc 3 × 10 mg/kg): 7 (n = 3) days
Activity (%) ([4]; sc 3 × 10 mg/kg): 17.7%
MSD (days) ([4]; sc 3 × 30 mg/kg): 14 (n = 3) days
Activity (%) ([4]; sc 3 × 30 mg/kg): 61.8%
morphological alterations of the worms [5]: ventrally curved in a cork-screw like manner
egg production ([5]; 24 hours, 100 μM): Almost no eggs were detectable
motility / vitality ([5]; 24 hours, 100 μM): Trematodes moved only slightly and with twitching movements
couples detectable [5, 10]: in two of the groups each one couple was detected
egg production ([5]; 48 hours, 20 μM): No eggs were detectable
motility / vitality ([5]; 48 hours, 20 μM): The trematodes barely moved
couples detectable [5, 11]: no couples could be observed in any of the groups
egg production ([5]; 48 hours, 100 μM): No eggs were detectable
motility / vitality ([5]; 48 hours, 100 μM): All trematodes were dead
couples detectable [5, 12]: no couples could be observed in any of the groups
IC50 [6]: 1.9 µg/mL (≈ 4.85 µM)

COc1ccc2c(c1)CCC1C2CC[C@@]2(C)C1CC[C@@H]2NCc1cccc(O)c1 (stereo partly drawn) [Compound 20, 17β-(3-Hydroxyphenyl-methylamino)-3-methoxy-estra-1,3,5(10)-triene]
IC50 [3, 9]: 733 nM
IC50 [3, 13]: 287 ng/mL

COc1ccc2c(c1)CCC1C2CC[C@@]2(C)C1C[C@@H](NCc1ccccc1O)[C@@H]2O (stereo partly drawn) [Compound 43, 16α-(2-Hydroxyphenyl-methylamino)-17β-hydroxy-3-methoxy-estra-1,3,5(10)-triene]
IC50 [1]: 1.2 µg/mL (≈ 2.94 µM)
IC50 [2]: 7.7 µg/mL (≈ 18.9 µM)
IC50 [3, 9]: 58.5 nM
IC50 [3, 13]: 23.9 ng/mL
IC50 [6]: 2 µg/mL (≈ 4.91 µM)

COc1ccc2c(c1)CCC1C2CC[C@@]2(C)C1CC[C@@H]2NCc1c(O)ccc2ccccc12 (stereo partly drawn) [Compound 19, 17β-[(2-Hydroxynaphth-1-yl)-methylamino]-3-methoxy-estra-1,3,5(10)-triene hydroperchlorate]
IC50 [3, 9]: 182 nM
IC50 [3, 13]: 98.6 ng/mL

COc1ccc2c(c1)CC[C@@H]1[C@@H]2CC[C@]2(C)[C@@H](O)[C@H](N(C)c3cc4ccccc4cc3O)C[C@@H]12 [Compound 32, 16α-[(3-Hydroxy-naphth-2-yl)-methylamino]-17β-hydroxy-3-methoxy-estra-1,3,5(10)-triene]
IC50 [3, 9]: 29.9 nM
IC50 [3, 13]: 13.7 ng/mL

COc1ccc2c(c1)CC[C@@H]1[C@@H]2CC[C@]2(C)[C@H](O)[C@H](N(C)c3cc4ccccc4cc3O)C[C@@H]12 [Compound 36, 16α-[(3-Hydroxy-naphth-2-yl)-methylamino]-17α-hydroxy-3-methoxy-estra-1,3,5(10)-triene]
IC50 [3, 9]: 42.1 nM
IC50 [3, 13]: 19.3 ng/mL

COc1ccc2c(c1)CCC1C2CC[C@@]2(C)C1CC[C@H]2NCc1cccc(O)c1 (stereo partly drawn) [Compound 6, 17α-(3-Hydroxyphenyl-methylamino)-3-methoxy-estra-1,3,5(10)-triene]
IC50 [3, 9]: 440 nM
IC50 [3, 13]: 172 ng/mL

COc1ccc2c(c1)CCC1C2CC[C@]2(C)C[C@H](NCc3ccccc3O)CC12 (stereo partly drawn) [Compound 4, 16α-(2-Hydroxyphenyl-methylamino)-3-methoxy-estra-1,3,5(10)-triene]
IC50 [1]: 1.3 µg/mL (≈ 3.32 µM)
IC50 [2]: 4.7 µg/mL (≈ 12 µM)
IC50 [3, 9]: 41.5 nM
IC50 [3, 13]: 16.4 ng/mL
in vitro activity in words [3]: comparable activity
IC50 [6]: 1.6 µg/mL (≈ 4.09 µM)

COc1ccc2c(c1)CCC1C2CC[C@@]2(C)C1C[C@H](NCc1ccccc1O)[C@H]2O (stereo partly drawn) [Compound 44, 16β-(2-Hydroxyphenyl-methylamino)-17α-hydroxy-3-methoxy-estra-1,3,5(10)-triene]
IC50 [1]: 0.85 µg/mL (≈ 2.09 µM)
IC50 [2]: 3.4 µg/mL (≈ 8.34 µM)
IC50 [3, 9]: 676 nM
IC50 [3, 13]: 275 ng/mL
IC50 [6]: 2.5 µg/mL (≈ 6.13 µM)

CCN(CC)CCCC(C)Nc1ccnc2cc(Cl)ccc12 (centres unmarked) [chloroquine, reference compound]
MSD chloroquine ip 3 × 10 mg/kg ([4]; ip 3 × 10 mg/kg): 13.6 days

COc1ccc2c(c1)CCC1C2CC[C@@]2(C)C1CC[C@H]2NCc1cc2ccccc2cc1O (stereo partly drawn) [Compound 41, 17α-[(3-Hydroxy-naphth-2-yl)-methylamino]-3-methoxy-estra-1,3,5(10)-triene]
IC50 [3, 8]: 1.9 ng/mL
IC50 [3, 9]: 4.4 nM
morphological alterations of the worms [5]: dorsal bending
egg production ([5]; 24 hours, 20 μM): Almost no eggs could be detected; also recorded: Almost no eggs were detectable
motility / vitality ([5]; 24 hours, 20 μM): Males barely moved and showed only twitching; also recorded: Trematodes moved only slightly and with twitching movements
egg production ([5]; 24 hours, 100 μM): Almost no eggs could be detected
motility / vitality ([5]; 24 hours, 100 μM): Males showed almost no motility
couples detectable [5, 10]: only in one of the groups a couple was detectable
egg production ([5]; 48 hours, 20 μM): No eggs were produced
motility / vitality ([5]; 48 hours, 20 μM): Single trematodes showed slightly twitching movements, while the rest was non-motile
couples detectable [5, 11]: no couples could be observed in any of the groups
egg production ([5]; 48 hours, 100 μM): No eggs were detectable
motility / vitality ([5]; 48 hours, 100 μM): Some of the worms were already dead, while others were dying
couples detectable [5, 12]: no couples could be observed in any of the groups
IC50 [7]: 3580 nM

COc1ccc2c(c1)CCC1C2CC[C@@]2(C)C1C[C@@H](NCc1ccccc1O)[C@H]2O (stereo partly drawn) [Compound 45, 16α-(2-Hydroxyphenyl-methylamino)-17α-hydroxy-3-methoxy-estra-1,3,5(10)-triene]
IC50 [3, 9]: 101 nM
IC50 [3, 13]: 41 ng/mL

COc1ccc2c(c1)CCC1C2CC[C@]2(C)C1C[C@@H](NCc1ccccc1O)[C@@H]2O (stereo partly drawn) [Compound 48, 16α-(2-Hydroxyphenyl-methylamino)-17β-hydroxy-3-methoxy-13α-estra-1,3,5(10)-triene]
IC50 [3, 9]: 83.3 nM
IC50 [3, 13]: 34 ng/mL

COc1ccc2c(c1)CCC1C2CC[C@]2(C)C[C@@H](NCc3ccccc3O)CC12 (stereo partly drawn) [Compound 3, 16β-(2-Hydroxyphenyl-methylamino)-3-methoxy-estra-1,3,5(10)-triene]
IC50 [1]: 0.7 µg/mL (≈ 1.79 µM)
IC50 [2]: 4.4 µg/mL (≈ 11.2 µM)
IC50 [3, 9]: 62 nM
IC50 [3, 13]: 24.5 ng/mL
in vitro activity in words [3]: comparable activity
IC50 [6]: 1.9 µg/mL (≈ 4.85 µM)

COc1ccc2c(c1)CCC1C2CC[C@@]2(C)C1CC[C@H]2NCc1ccccc1OC (stereo partly drawn) [Compound 5, 17α-(2-Methoxyphenyl-methylamino)-3-methoxy-estra-1,3,5(10)-triene]
IC50 [3, 9]: 879 nM
IC50 [3, 13]: 578 ng/mL

CCN(CC)c1ccc(CN[C@H]2CCC3C4CCc5cc(OC)ccc5C4CC[C@@]32C)c(O)c1 (stereo partly drawn) [Compound 23, 17β-[4-(N,N-Diethylamino)-2-hydroxyphenyl-methylamino]-3-methoxy-estra-1,3,5(10)-triene]
IC50 [3, 9]: 716 nM
IC50 [3, 13]: 331 ng/mL

COc1ccc2c(c1)CCC1C2CC[C@@]2(C)C1C[C@H](NCc1ccccc1O)[C@@H]2O (stereo partly drawn) [Compound 42, 16β-(2-Hydroxyphenyl-methylamino)-17β-hydroxy-3-methoxy-estra-1,3,5(10)-triene]
IC50 [3, 9]: 227 nM
IC50 [3, 13]: 91.3 ng/mL

COc1ccc2c(c1)CCC1C2CC[C@]2(C)C1C[C@H](NCc1ccccc1O)[C@@H]2O (stereo partly drawn) [Compound 47, 16β-(2-Hydroxyphenyl-methylamino)-17β-hydroxy-3-methoxy-13α-estra-1,3,5(10)-triene]
IC50 [3, 9]: 140 nM
IC50 [3, 13]: 57.3 ng/mL

COc1ccc2c(c1)CCC1C2CC[C@@]2(C)C1CC[C@H]2NCc1c(O)ccc2ccccc12 (stereo partly drawn) [Compound 17, 17α-[(2-Hydroxynaphth-1-yl)-methylamino]-3-methoxy-estra-1,3,5(10)-triene]
IC50 [3, 9]: 72.8 nM
IC50 [3, 13]: 32.1 ng/mL

COc1ccc2c(c1)CCC1C2CC[C@@]2(C)C1CC[C@H]2NCc1ccc(O)cc1 (some centres unmarked) [Compound 7]
IC50 [3, 9]: 115 nM
IC50 [3, 13]: 45 ng/mL

COc1ccc2c(c1)CCC1C2CC[C@@]2(C)C1C[C@H](NCc1cc(C(C)(C)C)cc(C(C)(C)C)c1O)[C@H]2O (stereo partly drawn) [Ref 1, 16β-(2-Hydroxy-3,5-di-tert-butylphenyl-methylamino)-17α-hydroxy-3-methoxy-estra-1,3,5(10)-triene, reference compound]
IC50 [3, 9]: 1610 nM
IC50 [3, 13]: 836 ng/mL
